# Measurements taken from patent publication US20180002320A1, “USE OF MACROCYCLIC PICOLINAMIDES AS FUNGICIDES” (DOW AGROSCIENCES LLC, priority 2014, published 2018).
# Like-named read-outs stand apart in the source and are kept apart here.
# Legend:
# [1] = test system: Zymoseptoria tritici; assay: Leaf Blotch of Wheat (SEPTTR) fungicidal activity; assay type: in vivo; conditions: Low Volume (121.5 g/H)
# Description: Technical grades of materials were dissolved in acetone, which were then mixed with nine volumes of H2O containing 110 ppm Triton X-100. The fungicide solutions were applied onto wheat seedlings using an automated booth sprayer to run-off. All sprayed plants were allowed to air dry prior to further handling. All fungicides were evaluated using the aforementioned method for their activity vs. all target diseases, unless stated otherwise. Wheat leaf blotch and brown rust activity were also evaluated using track spray applications, in which case the fungicides were formulated as EC formulations, containing 0.1% Trycol 5941 in the spray solutions. Wheat plants (variety Yuma) were grown from seed in a greenhouse in 50% mineral soil/50% soil-less Metro mix until the first leaf was fully emerged, with 7-10 seedlings per pot. These plants were inoculated with an aqueous spore suspension of Zymoseptoria tritici either prior to or after fungicide treatments. After inoculation the plants were kept in 100% relative humidity (one day in a dark dew chamber followed by two to three days in a lighted dew chamber at 20° C.) to permit spores to germinate and infect the leaf. The plants were then transferred to a greenhouse set at 20° C. for disease to develop. When disease symptoms were fully expressed on the 1st leaves of untreated plants, infection levels were assessed on a scale of 0 to 100 percent disease severity. Percent disease control was calculated using the ratio of disease severity on treated plants relative to untreated plants.
# [2] = test system: Puccinia triticina; assay: Wheat Brown Rust (PUCCRT) fungicidal activity; assay type: in vivo; conditions: Low Volume (121.5 g/H)
# Description: Technical grades of materials were dissolved in acetone, which were then mixed with nine volumes of H2O containing 110 ppm Triton X-100. The fungicide solutions were applied onto wheat seedlings using an automated booth sprayer to run-off. All sprayed plants were allowed to air dry prior to further handling. All fungicides were evaluated using the aforementioned method for their activity vs. all target diseases, unless stated otherwise. Wheat leaf blotch and brown rust activity were also evaluated using track spray applications, in which case the fungicides were formulated as EC formulations, containing 0.1% Trycol 5941 in the spray solutions. Wheat plants (variety Yuma) were grown from seed in a greenhouse in 50% mineral soil/50% soil-less Metro mix until the first leaf was fully emerged, with 7-10 seedlings per pot. These plants were inoculated with an aqueous spore suspension of Puccinia triticina either prior to or after fungicide treatments. After inoculation the plants were kept in a dark dew room at 22° C. with 100% relative humidity overnight to permit spores to germinate and infect the leaf. The plants were then transferred to a greenhouse set at 24° C. for disease to develop. Fungicide formulation, application and disease assessment followed the procedures as described in the Example A.
# [3] = 24 h, 1 Day Protectant, read-out: SEPTTR 1DP disease control
# [4] = 72 h, 3 Day Curative, read-out: SEPTTR 3DC disease control
# [5] = 24 h, 1 Day Protectant, read-out: PUCCRT 1DP disease control
# [6] = 72 h, 3 Day Curative, read-out: PUCCRT 3DC disease control
Compound,"pest or weed control at 121.5 g/ha [1, 3] [%]","pest or weed control at 121.5 g/ha [1, 4] [%]","pest or weed control at 121.5 g/ha [2, 5] [%]","pest or weed control at 121.5 g/ha [2, 6] [%]"
COc1ccnc(C(=O)N[C@H]2CCCC[C@H](Oc3ccccc3)[C@@H](Oc3ccccc3)[C@H](C)OC2=O)c1OC(C)=O [Compound 25],> 80,< 80,> 80,< 80
COc1ccnc(C(=O)N[C@H]2CCCC[C@H](Cc3ccccc3)[C@@H](OC(=O)C(C)C)[C@H](C)OC2=O)c1OCOC(C)=O [Compound 60],> 80,> 80,> 80,> 80
CCCO[C@H]1CCCC[C@H](NC(=O)c2nccc(OC)c2OC(C)=O)C(=O)O[C@@H](C)[C@@H]1Oc1ccccc1 [Compound 26],> 80,> 80,> 80,> 80
CCCO[C@H]1CCCC[C@H](NC(=O)c2nccc(OC)c2OCOC(C)=O)C(=O)O[C@@H](C)[C@@H]1Oc1ccccc1 [Compound 23],> 80,> 80,> 80,> 80
CCCO[C@H]1COCC[C@H](NC(=O)c2nccc(OC)c2OCOC(C)=O)C(=O)O[C@@H](C)[C@@H]1Oc1ccccc1 [Compound 41],> 80,> 80,> 80,> 80
COc1ccnc(C(=O)N[C@H]2CCOC[C@H](OC)[C@@H](Oc3ccccc3)[C@H](C)OC2=O)c1OCOC(C)=O [Compound 40],> 80,> 80,> 80,> 80
CCC[C@H]1CCCC[C@H](NC(=O)c2nccc(OC)c2OCOC(C)=O)C(=O)O[C@@H](C)[C@@H]1OC(=O)C(C)C [Compound 31],< 80,< 80,> 80,< 80
C=CCO[C@@H]1[C@@H](CC2CCCC2)CCCC[C@H](NC(=O)c2nccc(OC)c2OCOC(C)=O)C(=O)O[C@H]1C [Compound 53],–,< 80,< 80,–
COc1ccnc(C(=O)N[C@H]2CCCC[C@H](OC)[C@@H](Oc3ccccc3)[C@H](C)OC2=O)c1OCOC(C)=O [Compound 11],> 80,> 80,> 80,> 80
CCCO[C@H]1[C@H](C)OC(=O)[C@@H](NC(=O)c2nccc(OC)c2OCOC(C)=O)CCOC[C@@H]1Oc1ccccc1 [Compound 42],< 80,< 80,> 80,< 80
CCCOC(=O)O[C@H]1CCCC[C@H](NC(=O)c2nccc(OC)c2OCOC(C)=O)C(=O)O[C@@H](C)[C@@H]1OCC(C)C [Compound 38],> 80,> 80,> 80,< 80
COc1ccnc(C(=O)N[C@H]2CCOC[C@H](OC(=O)C(C)C)[C@@H](Oc3ccccc3)[C@H](C)OC2=O)c1OCOC(C)=O [Compound 44],< 80,< 80,> 80,> 80
CCOCC(=O)OCOc1c(OC)ccnc1C(=O)N[C@H]1CCCC[C@H](CC2CCCC2)[C@@H](OC(=O)C(C)C)[C@H](C)OC1=O [Compound 55],< 80,< 80,> 80,< 80
COc1ccnc(C(=O)N[C@H]2CCCC[C@H](OCc3ccccc3)[C@@H](OCc3ccccc3)[C@H](C)OC2=O)c1OCOC(C)=O [Compound 8],> 80,> 80,> 80,> 80
